Laboratory results from patent publication US6875872B1, “Compounds” (AstraZeneca, priority 1993, dated 2005).

How the values were obtained:
[1] = Racemization experiment in aqueous phosphate buffer pH 11 warmed at 37° C.; format: physicochemical; conditions: aqueous phosphate buffer solution pH=11, c=10^-5 M, 26 hours at 37° C.
[2] = Stability towards racemization at different pH values (aqueous buffer solutions, refrigerator, optical purity by chiral column chromatography); format: physicochemical; conditions: for racemization (stereochemical stability): after 16 days
Method: Stability Towards Racemization at Different pH Values
The stability of the optically pure compounds of the invention against racemization has been measured at low concentrations in a refrigerator in aqueous buffer solutions at pH 8, 9.3, 10 and 11.2. The stereochemical stability was measured by comparing the optical purity for the (−)-isomer of 5-methoxy-2-[[(4-methoxy-3,5-dimethyl-2-pyridinyl)-methyl]sulfinyl]-1H-benzimidazole in buffer solution immediately after dissolving and after several days. The measurement was performed by chromatography on an analytical chiral column.

COc1ccc2[nH]c([S+]([O-])Cc3ncc(C)c(OC)c3C)nc2c1.[Na+] (single isomer, unassigned; (+)) [(+)-5-methoxy-2-[[(4-methoxy-3,5-dimethyl-2-pyridinyl)methyl]sulfinyl]-1H-benzimidazole sodium salt]
racemization [1]: without any racemization at all being observed

COc1ccc2[nH]c([S+]([O-])Cc3ncc(C)c(OC)c3C)nc2c1 (single isomer, unassigned; (-)) [(−)-5-methoxy-2-[[(4-methoxy-3,5-dimethyl-2-pyridinyl)methyl]-sulfinyl]-1H-benzimidazole]
racemization (stereochemical stability) ([2]; aqueous buffer solution pH 8, refrigerator): at none of these pH values a detectable racemization was obtained
racemization (stereochemical stability) ([2]; aqueous buffer solution pH 9.3, refrigerator): at none of these pH values a detectable racemization was obtained
racemization (stereochemical stability) ([2]; aqueous buffer solution pH 10, refrigerator): at none of these pH values a detectable racemization was obtained
racemization (stereochemical stability, optical purity immediately after dissolving vs after several days) ([2]; aqueous buffer solution pH 11.2, refrigerator, low concentration, after 21 days): no racemization
chemical degradation of the compound ([2]; aqueous buffer solutions pH 8, 9.3 and 10, refrigerator (compared with pH 11.2)): more apparent
